“And” between values parts separate entries of the source, which are not always exact repeats. Equal values may be shown once. Read-outs that look alike come from different tables or passages of the source. Marks after values point to notes of the source that are not given here.
Legend:
[1] = cited from earlier work
[2] = 75 mg immediate release dosage; Afilalo et al. 2008; cited from earlier work
[3] = Comparative in vivo bioavailability study in the dog (oral gavage, plasma LC-MS-MS); details: for half-life / AUC / AUC(0-t) / Cmax / Tmax: Beagle, plasma, po
Method: Test substances (i.e., tapentadol (1 mg/kg) and tapentadol valine carbamate (0.8 mg tapentadol base equivalents/kg)) were administered by oral gavage to a group of five dogs (dog nos. 1, 2, 3, 4 and 5) in a two-way crossover design. The characteristics of the test animals are set out in Table 3.
(§1) Blood samples were taken at various times after administration and submitted to analysis for the parent drug and pro-drug using a validated LC-MS-MS assay. Pharmacokinetic parameters derived from the plasma analytical data were determined using Win Nonlin.

[4] = Comparative bioavailability after oral administration to rats (plasma LC-MS-MS); type: in vivo; details: male rat, oral tapentadol 10 mg free base equiv/kg, individual animals 1-5 (5 outlier)
Method: Test substances, i.e., tapentadol or tapentadol valine carbamate were administered by oral gavage to groups of male Sprague Dawley rats.
as §1

[5] = oral tapentadol HCl 1 mg tapentadol base equiv/kg, individual dogs 1-5
[6] = oral tapentadol valine carbamate 0.8 mg tapentadol base equiv/kg, individual dogs 1-5

CC[C@@H](c1cccc(O)c1)[C@@H](C)CN(C)C (racemic) [Tapentadol, (−)-(1R,2R)-3-(3-dimethyl-amino-1-ethyl-2-methyl-propyl)-phenol]
clearance (printed C1) ([1]; Terlinden et al. (2007)): 1468 ± 122 mL/min | plasma half-life ([1]; humans): 270 min | patients with nausea/vomiting [2]: 30-35% | treated patients with constipation [2]: ~11% | half-life ([3]; 0.8 mg/kg, oral tapentadol valine carbamate 0.8 mg tapentadol base equiv/kg, calculated as ln2/mean k, read-out: t½ of tapentadol (converted)): 48 min | AUC ([3]; 0.8 mg/kg, oral tapentadol valine carbamate 0.8 mg tapentadol base equiv/kg, individual dogs 1-5, read-out: AUC of tapentadol): 31.4 ng·h/mL | AUC(0-t) ([3]; 0.8 mg/kg, oral tapentadol valine carbamate 0.8 mg tapentadol base equiv/kg, individual dogs 1-5, read-out: AUCt of tapentadol): 29.5 ng·h/mL | Cmax ([3]; 0.8 mg/kg, oral tapentadol valine carbamate 0.8 mg tapentadol base equiv/kg, individual dogs 1-5, read-out: Cmax of tapentadol): 13.7 ng/mL | Tmax ([3]; 0.8 mg/kg, oral tapentadol valine carbamate 0.8 mg tapentadol base equiv/kg, individual dogs 1-5, read-out: Tmax of tapentadol): 60 min | half-life ([3]; 0.8 mg/kg, oral tapentadol valine carbamate 0.8 mg tapentadol base equiv/kg, individual dogs 1-5, read-out: t½ of tapentadol (converted)): 48 min | AUC ([3]; 0.8 mg/kg, oral tapentadol valine carbamate 0.8 mg tapentadol base equiv/kg, mean of 5 dogs, read-out: AUC of tapentadol): 34.2 ng·h/mL | AUC(0-t) ([3]; 0.8 mg/kg, oral tapentadol valine carbamate 0.8 mg tapentadol base equiv/kg, mean of 5 dogs, read-out: AUCt of tapentadol): 32 ng·h/mL | Cmax ([3]; 0.8 mg/kg, oral tapentadol valine carbamate 0.8 mg tapentadol base equiv/kg, mean of 5 dogs, read-out: Cmax of tapentadol): 14.5 ng/mL | Tmax ([3]; 0.8 mg/kg, oral tapentadol valine carbamate 0.8 mg tapentadol base equiv/kg, median of 5 dogs, read-out: Tmax of tapentadol): 60 min | half-life ([3]; 1 mg/kg, oral tapentadol HCl 1 mg tapentadol base equiv/kg, calculated as ln2/mean k, read-out: t½ of tapentadol (converted)): 72 min | Tmax ([3]; 1 mg/kg, oral tapentadol HCl 1 mg tapentadol base equiv/kg, individual dogs 1-5, read-out: Tmax of tapentadol): 30 min | AUC ([3]; 1 mg/kg, oral tapentadol HCl 1 mg tapentadol base equiv/kg, mean of 5 dogs, read-out: AUC of tapentadol): 2.78 ng·h/mL | AUC(0-t) ([3]; 1 mg/kg, oral tapentadol HCl 1 mg tapentadol base equiv/kg, mean of 5 dogs, read-out: AUCt of tapentadol): 2.56 ng·h/mL | Cmax ([3]; 1 mg/kg, oral tapentadol HCl 1 mg tapentadol base equiv/kg, mean of 5 dogs, read-out: Cmax of tapentadol): 1.45 ng/mL | Tmax ([3]; 1 mg/kg, oral tapentadol HCl 1 mg tapentadol base equiv/kg, median of 5 dogs, read-out: Tmax of tapentadol): 30 min | AUC of tapentadol [3, 5]: 1.96 ng·h/mL and 2.02 ng·h/mL and 3.38 ng·h/mL and 4.53 ng·h/mL and 1.99 ng·h/mL | AUCt of tapentadol [3, 5]: 1.84 ng·h/mL and 1.88 ng·h/mL and 2.68 ng·h/mL and 4.48 ng·h/mL and 1.92 ng·h/mL | Cmax of tapentadol [3, 5]: 0.75 ng/mL and 1.77 ng/mL and 1.27 ng/mL and 2.39 ng/mL and 1.08 ng/mL | T>50%Cmax of tapentadol [3, 5]: 1.5 h (2×) and 0 h and 0.5 h (2×) | T>50%Cmax of tapentadol ([3]; oral tapentadol HCl 1 mg tapentadol base equiv/kg, median of 5 dogs): 0.5^a h | AUC of tapentadol [3, 6]: 25.5 ng·h/mL and 39.9 ng·h/mL and 29.1 ng·h/mL and 45.0 ng·h/mL | AUCt of tapentadol [3, 6]: 22.8 ng·h/mL and 36.4 ng·h/mL and 28.3 ng·h/mL and 43.2 ng·h/mL | Cmax of tapentadol [3, 6]: 11.1 ng/mL and 17.0 ng/mL and 11.7 ng/mL and 19.3 ng/mL | T>50%Cmax of tapentadol [3, 6]: 1 h (3×) and 1.5 h (2×) | Tmax of tapentadol [3, 6]: 120 min | t½ of tapentadol [3, 6]: 66 min and 54 min and 60 min and 36 min | T>50%Cmax of tapentadol ([3]; oral tapentadol valine carbamate 0.8 mg tapentadol base equiv/kg, median of 5 dogs): 1^a h | Plasma concentration of tapentadol ([4]; 0.5 h): 003.53 ng/mL and 001.60 ng/mL and 2.33 ng/mL and 003.48 ng/mL and 70.5 ng/mL | Plasma concentration of tapentadol ([4]; 1 h): 3.98 ng/mL and 2.32 ng/mL and 5.21 ng/mL and 5.87 ng/mL and 52.6 ng/mL | Plasma concentration of tapentadol ([4]; 2 h): 2.70 ng/mL and 2.28 ng/mL and 1.72 ng/mL and 3.06 ng/mL and 22.7 ng/mL | Plasma concentration of tapentadol ([4]; 3 h): 1.75 ng/mL and 1.65 ng/mL and 1.68 ng/mL and 2.20 ng/mL and 10.9 ng/mL

— US20100227921A1, “AMINO ACID AND PEPTIDE CARBAMATE PRODRUGS OF […] USES THEREOF” (SHIRE LLC, priority 2009, published 2010)
